# Where two headings read alike, the source gives them in different places.
# How the values were obtained:
# Type in all cases: cell-based
# S. pyogenes = experiment: Broth dilution MIC determination (CLSI) against S. pyogenes strains; settings: for MIC: Streptococcus pyogenes
# Outline: (§1)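 MICs were determined by CLSI standard broth dilution against several strains per species, including multidrug-resistant and macrolide-resistant strains. Azithromycin and solithromycin served as control compounds.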
# K. pneumoniae = experiment: Broth dilution MIC determination (CLSI) against K. pneumoniae strains; settings: for MIC: Klebsiella pneumoniae
# Outline: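 Azithromycin and solithromycin served as controls; MICs were obtained by standard CLSI broth dilution on a strain panel including multidrug-resistant and macrolide-resistant isolates.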
# H. influenzae = experiment: Broth dilution MIC determination (CLSI) against H. influenzae strains; settings: for MIC: Haemophilus influenzae
# Text: Minimum inhibitory concentrations (MICs) for macrolides described herein have been determined for unique strains of S. aureus, S. pneumoniae, S. pyogenes, E. faecalis, E. coli, A. baumannii, K. pneumoniae, P. aeruginosa, and H. influenzae, including several multidrug-resistant strains, with a special focus on macrolide resistant mechanisms. Azithromycin and solithromycin were included as control compounds. CLSI standard procedures for broth dilution MIC determination were used. Data for exemplary compounds described herein is shown in Tables M1-M7 and in Tables N1-N4.
# E. faecalis = experiment: Broth dilution MIC determination (CLSI) against E. faecalis strains; settings: for MIC: Enterococcus faecalis
# Outline: as §1
# E. coli = experiment: Broth dilution MIC determination (CLSI) against E. coli strains; settings: for MIC: Escherichia coli
# Outline: as §1
# S. aureus = experiment: Broth dilution MIC determination (CLSI) against S. aureus strains; settings: for MIC: Staphylococcus aureus
# Outline: as §1
# S. pneumoniae = experiment: Broth dilution MIC determination (CLSI) against S. pneumoniae strains; settings: for MIC: Streptococcus pneumoniae
# Outline: as §1
# A. baumannii = experiment: Broth dilution MIC determination (CLSI) against A. baumannii strains; settings: for MIC: Acinetobacter baumannii
# Outline: as §1
# P. aeruginosa = experiment: Broth dilution MIC determination (CLSI) against P. aeruginosa strains; settings: for MIC: Pseudomonas aeruginosa
# Outline: as §1
# [1] = ATCC19615, ATCC19615, read-out: MIC S. pyogenes ATCC19615
# [2] = macrolide-resistant, read-out: MIC S. pyogenes macrolide-resistant
# [3] = ATCC10031, ATCC10031, read-out: MIC K. pneumoniae ATCC10031
# [4] = KPC-2, read-out: MIC K. pneumoniae KPC-2
# [5] = ATCC49247, ATCC49247, read-out: MIC H. influenzae ATCC49247
# [6] = erythro > 4, azithro 1, read-out: MIC H. influenzae erythro > 4, azithro 1
# [7] = ATCC29212, ATCC29212, read-out: MIC E. faecalis ATCC29212
# [8] = Vancomycin-resistant, read-out: MIC E. faecalis Vancomycin-resistant
# [9] = ATCC25922, ATCC25922, read-out: MIC E. coli ATCC25922
# [10] = read-out: MIC E. coli NDM-1, NDM-1
# [11] = ATCC29213, ATCC29213, read-out: MIC S. aureus ATCC29213
# [12] = MRSA / USA100, MRSA: USA100, read-out: MIC S. aureus MRSA: USA100
# [13] = MRSA / USA300, MRSA: USA300, read-out: MIC S. aureus MRSA: USA300
# [14] = USA600, USA600, GISA, read-out: MIC S. aureus USA600, GISA
# [15] = read-out: MIC S. aureus erm A genotype
# [16] = ATCC49619, ATCC49619, read-out: MIC S. pneumoniae ATCC49619
# [17] = erm B + mef A genotype, read-out: MIC S. pneumoniae erm B + mef A genotype
# [18] = erm B + tet(M, O) genotype, read-out: MIC S. pneumoniae erm B + tet(M, O) genotype
# [19] = read-out: MIC S. pneumoniae mef A genotype, mef A genotype
# [20] = read-out: MIC S. pneumoniae mef A genotype, mef A genotype, first of two such columns (c3)
# [21] = ATCC19606, ATCC19606, read-out: MIC A. baumannii ATCC19606
# [22] = imipenem-resistant, read-out: MIC A. baumannii imipenem-resistant
# [23] = ATCC27853, read-out: MIC P. aeruginosa ATCC27853
smiles,measurement,setting,value
CC[C@H]1OC(=O)[C@H](C)C(=O)[C@H](C)[C@@H](O[C@@H]2OC(CN)CC(N(C)C)C2O)[C@](C)(OC)C[C@@H](C)CN[C@H](C)[C@H]2N(CCCCn3cc(-c4cccc(N)c4)nn3)C(=O)O[C@]12C (some centres unmarked) [FSM-21700],MIC,S. pyogenes; [1],0.0625 µg/mL
same,MIC,S. pyogenes; [2],2 µg/mL
same,MIC,K. pneumoniae; [3],4 µg/mL
same,MIC,K. pneumoniae; [4],> 32 µg/mL
same,MIC,"K. pneumoniae; SHV-12, read-out: MIC K. pneumoniae SHV-12",> 32 µg/mL
same,MIC,"K. pneumoniae; TEM-10, read-out: MIC K. pneumoniae TEM-10",32 µg/mL
same,MIC,H. influenzae; [5],32 µg/mL
same,MIC,H. influenzae; [6],16 µg/mL
same,MIC,E. faecalis; [7],8 µg/mL
same,MIC,E. faecalis; [8],> 32 µg/mL
same,MIC,E. coli; [9],32 µg/mL
same,MIC,"E. coli; read-out: MIC E. coli CTX-M-14, CTX-M-14",> 32 µg/mL
same,MIC,E. coli; [10],16 µg/mL
same,MIC,"E. coli; read-out: MIC E. coli TEM-1, TEM-1",8 µg/mL
same,MIC,S. aureus; [11],8 µg/mL
same,MIC,S. aureus; [12],> 32 µg/mL
same,MIC,S. aureus; [13],> 32 µg/mL
same,MIC,S. aureus; [14],> 32 µg/mL
same,MIC,S. aureus; [15],32 µg/mL
same,MIC,S. pneumoniae; [16],≤ 0.0312 µg/mL
same,MIC,S. pneumoniae; [17],16 µg/mL
same,MIC,S. pneumoniae; [18],0.0625 µg/mL
same,MIC,S. pneumoniae; [19],2 µg/mL
same,MIC,S. pneumoniae; [20],0.5 µg/mL
same,MIC,A. baumannii; [21],> 32 µg/mL
same,MIC,"A. baumannii; IMP-4, read-out: MIC A. baumannii IMP-4",> 32 µg/mL
same,MIC,"A. baumannii; chromosomal class C, read-out: MIC A. baumannii chromosomal class C",> 32 µg/mL
same,MIC,A. baumannii; [22],> 32 µg/mL
same,MIC,P. aeruginosa; [23],> 32 µg/mL
same,MIC,P. aeruginosa; read-out: MIC P. aeruginosa HPA101-1477,> 32 µg/mL
C=CCOC(=O)NCC1CC(N(C)C)C(O)[C@H](O[C@@H]2[C@@H](C)C(=O)[C@@H](C)C(=O)O[C@H](CC)[C@@]3(C)OC(=O)N(CCCCn4cc(-c5cccc(N)c5)nn4)[C@@H]3[C@@H](C)NC[C@H](C)C[C@@]2(C)OC)O1 (some centres unmarked) [FSM-21795],MIC,S. pyogenes; [1],0.0625 µg/mL
same,MIC,S. pyogenes; [2],2 µg/mL
same,MIC,K. pneumoniae; [3],8 µg/mL
same,MIC,K. pneumoniae; [4],> 32 µg/mL
same,MIC,H. influenzae; [5],4 µg/mL
same,MIC,H. influenzae; [6],8 µg/mL
same,MIC,E. faecalis; [7],1 µg/mL
same,MIC,E. faecalis; [8],> 32 µg/mL
same,MIC,E. coli; [9],16 µg/mL
same,MIC,E. coli; [10],> 32 µg/mL
same,MIC,S. aureus; [11],16 µg/mL
same,MIC,S. aureus; [12],> 32 µg/mL
same,MIC,S. aureus; [13],> 32 µg/mL
same,MIC,S. aureus; [14],> 32 µg/mL
same,MIC,S. aureus; [15],> 32 µg/mL
same,MIC,S. pneumoniae; [16],0.25 µg/mL
same,MIC,S. pneumoniae; [17],> 32 µg/mL
same,MIC,S. pneumoniae; [18],0.0625 µg/mL
same,MIC,S. pneumoniae; [19],16 µg/mL
same,MIC,S. pneumoniae; [20],4 µg/mL
same,MIC,A. baumannii; [21],32 µg/mL
same,MIC,A. baumannii; [22],32 µg/mL
same,MIC,P. aeruginosa; [23],32 µg/mL
CCC1OC(=O)C(C)C(=O)C(C)C(OC2OC(COC(=O)c3ccccc3)C(O)C(N(C)C)C2O)C(C)(OC)CC(C)CNC(C)C2N(CCCCn3cc(-c4cccc(N)c4)nn3)C(=O)OC12C (centres unmarked) [FSM-21797],MIC S. pyogenes ATCC19615,S. pyogenes; ATCC19615,8 µg/mL
same,MIC S. pyogenes macrolide-resistant,S. pyogenes; macrolide-resistant,32 µg/mL
same,MIC K. pneumoniae ATCC10031,K. pneumoniae; ATCC10031,>32 µg/mL
same,MIC K. pneumoniae KPC-2,K. pneumoniae; KPC-2,>32 µg/mL
same,MIC H. influenzae ATCC49247,H. influenzae; ATCC49247,>32 µg/mL
same,"MIC H. influenzae erythro > 4, azithro 1","H. influenzae; erythro > 4, azithro 1",>32 µg/mL
same,MIC E. faecalis ATCC29212,E. faecalis; ATCC29212,32 µg/mL
same,MIC E. faecalis Vancomycin-resistant,E. faecalis; Vancomycin-resistant,>32 µg/mL
same,MIC E. coli ATCC25922,E. coli; ATCC25922,>32 µg/mL
same,MIC E. coli NDM-1,E. coli; NDM-1,>32 µg/mL
same,MIC S. aureus ATCC29213,S. aureus; ATCC29213,>32 µg/mL
same,MIC S. aureus MRSA: USA100,S. aureus; MRSA: USA100,>32 µg/mL
same,MIC S. aureus MRSA: USA300,S. aureus; MRSA: USA300,>32 µg/mL
same,"MIC S. aureus USA600, GISA","S. aureus; USA600, GISA",>32 µg/mL
same,MIC S. aureus erm A genotype,S. aureus; erm A genotype,>32 µg/mL
same,MIC S. pneumoniae ATCC49619,S. pneumoniae; ATCC49619,32 µg/mL
same,MIC S. pneumoniae erm B + mef A genotype,S. pneumoniae; erm B + mef A genotype,>32 µg/mL
same,"MIC S. pneumoniae erm B + tet(M, O) genotype","S. pneumoniae; erm B + tet(M, O) genotype",16 µg/mL
same,MIC A. baumannii ATCC19606,A. baumannii; ATCC19606,>32 µg/mL
same,MIC A. baumannii imipenem-resistant,A. baumannii; imipenem-resistant,>32 µg/mL
same,MIC P. aeruginosa ATCC27853,P. aeruginosa; ATCC27853,>32 µg/mL

# — US11535643B2, “Macrolides with modified desosamine sugars and uses thereof” (President and Fellows of Harvard College, priority 2015, dated 2022)
